Source: patent US20060241168A1, “Antidepressant” (priority 2002, published 2006)

System: Akt
Test: Akt phosphorylation in rat hippocampus glia mixed culturing system (immunoprecipitation, Western blotting)
Assay type: cell-based
Details: rat hippocampus mixed culture; added at 300 nM or 100 nM; after one day and three days
Method: The hippocampus was removed from a 3 day-old rat and the cells were dispersed in a nerve dispersing solution. After the number of the cells was counted, the cells were suspended in a DMEM/F-12 medium containing 10% FCS (Embryo Max) and was then seeded on a 6-well plate coated with type I collagen at a density of 3×10^5 cells/cm^2. After cultured for 4 days, the medium was replaced with a N2 supplement-containing medium. Compound (I) (Compound 17a was used; hereinafter referred to Compound A) was added to a well at 300 nM or 100 nM, and IGF-1 was added to a well at 100 ng/mL. One day or three days after the addition, the cells were collected using Lysis Buffer containing protease inhibitor cocktail. Each cell suspension was centrifuged at 20000 rpm for 30 minutes and the supernatant was collected. An anti-5G3 Akt antibody was added to the supernatant to immunoprecipitate intracellular Akt. The resulting precipitate was subjected to SDS-PAGE using a 5-20% polyacrylamide gel and then to Western blotting. An anti-Phospho Akt antibody as a primary antibody and an HRP-linked anti-Rabbit antibody as a secondary antibody were used to detect the bands of phosphorylated Akt (Ser473 and Thr308). In order to detect the total Akt, the PVDF membrane was immersed in a reprobe buffer and permeated at 55° C. for 20 minutes to peel the antibodies. […]

COc1cc2c(cc1OC)CN(c1c(C)c(C)c3c(c1C)[C@@H](c1ccc(C)cc1)C(C)(C)O3)C2 [Compound A]
phosphorylation of Akt at Ser473: promoted phosphorylation
phosphorylation of Akt at Thr308: promoted phosphorylation
